Experimental data published in US20230272345A1, “SELF-ASSEMBLED CELL SHEET CONSTRUCTS AND METHODS OF MAKING THEREOF” (Caro Meats Inc., priority 2020, published 2023).

What was measured:
C2C12 cells [1] = details: 100 nM in DM, Nowak et al. 2009; cited from earlier work
C2C12 cells [2] = experiment: Effect of Lat-B treatment during the 24 hrs before delamination on detachment / sheet formation; type: cell-based
Description: In order to start the delamination process DM was replaced with acidic medium (medium A) (DM with 0.1% V/V acetic acid, final pH of ˜6) and samples were incubated for 5-10 min at 37° C. At this point that sheets started to delaminate the process was accelerated by gentle shaking of the well plate. Process could be accelerated by applying shear force using gentle pipetting of medium to the edges of the wells. Immediately after delamination was completed, medium A was replaced with basic medium (medium B, final pH of ˜8) (DM with 0.1% V/V 0.1 M sodium hydroxide in deionized water) in order to prevent samples from forming clumps. After 5 min of treatment with medium B, samples were transferred to neutral medium (medium N, pH of 7.4) (DM without any pH adjustment). In case of stacks, the required number of sheets, either 2 layers of cell sheets (double-layer constructs) or 4 layers (quadruple-layer constructs), were stacked on top of each other by simply dragging them using a tweezer and placing them on each other. This process was also performed in abundant amounts of medium B and after stacking was done, most of the media was aspirated to let the sheets settle down because of their weight for 5 more minutes and then extra medium N was added (FIG. 1B). Images of sheets were taken 1 hr after delamination/stacking and 24 hrs later using a stereomicroscope (Infinity Optical Systems). Diameter of the sheets was used using ImageJ at these time points to study effect of number of layers on shrinkage pattern of the constructs.
(§1) Difference in cytoskeleton reorganization of differentiated cells vs. undifferentiated ones was studied by treating cells with Latrunculin-B (Lat-B) (Abcam, ab144291). C2C12 cells grown in GM and the partially differentiated ones in DM were treated with 100 nM Lat-B in GM and DM, respectively, for 1 hr at D1 and microscopy was performed using inverted microscope in brightfield mode. Effect of cytoskeleton reorganization on detachment of the sheets was also studied by treating the cells with 50 and 100 nM of Lat-B in DM during the 24 hrs before delamination. Lat-B stock solution was prepared by dissolving 100 μg in 1 mL DMSO.

C2C12 cells [3] = experiment: Effect of Lat-B on cytoskeleton reorganization / morphology of C2C12 cells (brightfield microscopy); type: cell-based
Description: as §1

## C/C1=C/C(=O)O[C@@H]2C[C@@H](CC[C@H](C)/C=C\CC1)O[C@@](O)([C@@H]1CSC(=O)N1)C2 [Lat-B, Latrunculin-B]
C2C12 cells [1]
  Fusion of C2C12 cells: would not fuse to each other
C2C12 cells [2]; 50 nM Lat-B in DM for 24 hrs before delamination
  Delamination / sheet formation: started to delaminate, but the sheets were fragile and broke to smaller pieces
C2C12 cells [2]; 50 nM Lat-B in DM for 24 hrs before delamination, listed as Latrunculin-B
  Delamination / sheet formation: delaminated but were fragile
C2C12 cells [2]; 100 nM Lat-B in DM for 24 hrs before delamination
  Delamination / sheet formation: did not form sheets at all
C2C12 cells [2]; 100 nM Lat-B in DM for 24 hrs before delamination, listed as Latrunculin-B
  Delamination / sheet formation: did not form continuous sheets
C2C12 cells [3]; 50 nM Lat-B in DM, 24 hr (D1 to D2)
  Morphology after 24 hr of treatment: slightly round
C2C12 cells [3]; 50 nM Lat-B in DM, first few hours (data not shown)
  Morphology during the first few hours: did not show significant changes in their morphology
C2C12 cells [3]; 100 nM Lat-B in DM, 1 hr at D1, partially differentiated C2C12
  Morphology of partially differentiated cells: changed very fast to round cells and eventually they formed clumps of cells
C2C12 cells [3]; 100 nM Lat-B in DM, 24 hrs (D1 to D2)
  Morphology after 24 hrs of treatment: regained their stretched morphology after 24 hrs of treatment but were still rounder compared to untreated cells
C2C12 cells [3]; 100 nM Lat-B in GM, 1 hr at D1, undifferentiated C2C12
  Morphology of undifferentiated cells: only became slightly round
